Measurements taken from the METLIN SMRT retention time set (Domingo-Almenara et al. 2019).

assay: gradient 5% acetonitrile 3 min, to 50% in 2 min, to 85% in 15 min, held 3 min, 100 µL/min; details: column: Zorbax Extend-C18 2.1 x 50 mm; eluents: water / acetonitrile, 0.1% formic acid
Summary of the method: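 Mixtures of ~100 pure standards were chromatographed on a Zorbax Extend-C18 column (2.1 × 50 mm, 1.8 μm) at 100 μL/min using water and acetonitrile, each with 0.1% formic acid. Detection used a quadrupole time-of-flight mass spectrometer in positive and negative ionization mode, and data collection spanned 3 months. Retention time was obtained from adduct peaks picked computationally and each checked manually.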

RP-LC retention time | SMILES
719 s | O=C(O)c1ccc(NC(=O)c2ccc([N+](=O)[O-])cc2Cl)cc1
634 s | COCCNC(=O)Cn1c(=O)n(-c2ccccc2)c2ncccc21
919 s | O=C(CN1C(=O)CCCc2cc(S(=O)(=O)N3CCCCCC3)ccc21)NCc1ccc(F)cc1
884 s | CC1=C(c2ccc(C)c(C)c2)S(=O)(=O)N=C1N1CCC(C(=O)NCCc2ccco2)CC1
756 s | COCCNC(=O)CN1c2ccc(F)cc2-c2ccccc2S1(=O)=O
690 s | Cn1nc(C(=O)N2CCCC(c3nnc(-c4ccccc4F)s3)C2)ccc1=O (stereo not given)
769 s | O=C(Nc1ccc(N2CCCCS2(=O)=O)cc1)OCc1ccccc1
666 s | O=C(NC1CCN(C(=O)C2CC2)C1)c1ccc(F)cc1 (stereo not given)
631 s | COc1ccc(CCNc2nc3ccncc3n(C(C)C)c2=O)cc1OC
566 s | Cc1nnc(C2CC3(CCN(CC(C)C)CC3)CN2Cc2ccccc2)o1 (stereo not given)
753 s | Cc1nc2cc(NS(=O)(=O)c3cccc4cccnc34)ccc2s1
724 s | COCC(=O)Nc1cnc(-c2ccc(OC)cc2)nc1
786 s | CCOc1ccccc1-c1c(C#N)c(N)nc2c1c(=O)n(C)c(=O)n2C
568 s | COc1ccc(N2CCCn3c2nc2c3c(=O)n(C)c(=O)n2C)cc1
845 s | Cc1nc(CC(=O)Nc2ccc(F)cc2Cl)cs1
640 s | CN(C(=O)Cn1nc(Cc2cccnc2)c2ccccc2c1=O)C1CCCCC1
817 s | Nc1ccc(SCC(=O)Nc2nc(-c3ccccc3)cs2)cc1
816 s | COc1cc(N2CCN(S(=O)(=O)c3ccccc3F)CC2)nc(OC)n1
1390 s | CCCN(C(=O)c1ccco1)c1nc(-c2ccc(C)cc2)cs1
670 s | Cn1ncc2cc3c(Nc4ccc(Cl)cc4)cccc3nc21
635 s | CCN(CC)CCNC(=O)c1c(C)oc2c1C(=O)c1ccccc1C2=O
583 s | CCN(Cc1ccc(Cl)cc1)Cc1cc(=O)n2cc(C)ccc2n1
766 s | COc1ccc(-c2ccc(N3CCN(c4ccccc4)CC3)nn2)cc1S(=O)(=O)N1CCOCC1

RP-LC retention time | SMILES
623 s | CC(C)n1cnc2cc(CNC(=O)Cc3ccc(F)cc3)ccc21
729 s | COc1ccc(CCC(=O)N2CCC3(C2)C(=O)Nc2ccccc23)cc1 (stereo not given)
639 s | CCCn1c(CCNC(=O)c2cccc(Cl)c2)nc2cccnc21
852 s | CC(Oc1ccccc1)c1nc(-c2ccc3c(c2)nnn3CCC(=O)N2CCOCC2)no1 (stereo not given)
680 s | O=C(NCCCN1CCCC1=O)c1cccc2c1CCN2C(=O)Nc1ccc(F)cc1
584 s | O=C(Cc1cccs1)NC1CC(=O)N(C2CC2)C1 (stereo not given)
641 s | Cc1nnc(SCC2=C(C(=O)O)N3C(=O)C(NC(=O)Cn4cnnn4)C3SC2)s1 (stereo not given)
702 s | CCC1CCCCN1C(=O)c1cnc2nc(C)ccc2c1Nc1ccc(C)c(C)c1 (stereo not given)
1200 s | O=C(NCc1cc(F)cc(F)c1)c1c(O)c2cccnc2n(-c2cccc(F)c2)c1=O
965 s | COc1cccc2cc(-c3nnc(NC(=O)c4ccc([N+](=O)[O-])s4)o3)oc12
810 s | CC1CCCCN1c1ccn2c(=O)n(CC(=O)Nc3cc(F)cc(F)c3)nc2n1 (stereo not given)
603 s | COCc1cc(=O)n(CC(=O)NCc2ccc(F)cc2F)c(N)n1
850 s | CCc1nc2c(NC(=O)c3ccc(C)c(F)c3)cccn2n1
1070 s | CC(C)c1noc(-c2cc(=O)n(CC(=O)Nc3cccc(Cl)c3)c3ccccc23)n1
981 s | C=CCn1c(C(=O)NCCc2c[nH]c3ccccc23)cc2cc(S(=O)(=O)N(C)C)ccc21
1030 s | Cc1sc2ccn(CC(C)C)c(=O)c2c1C(=O)NC(C)c1ccc(F)cc1 (stereo not given)
728 s | COCCN(Cc1ccc(C(C)C)cc1)Cc1cc(=O)n2cccc(C)c2n1
650 s | O=C(NCCCN1CCCC1)C1CCN(c2nccnc2Sc2ccccc2)CC1
604 s | COc1ccc(NC(=O)NCCn2c(C)nc3ccccc32)c(OC)c1
603 s | O=C(Nc1cccnc1)C1CCCN(c2ncnc3c2nc2n3CCCCC2)C1 (stereo not given)
705 s | O=C(NC1CCN(c2cc(-c3ccc(F)cc3)[nH]n2)C1)c1ccccc1 (stereo not given)
954 s | COc1ccccc1OCC(=O)N1CCc2cc(-c3csc(C)n3)ccc21
